Results: PubChem BioAssay AID1259407 (Chemical Carcinogenesis Research Information System (CCRIS), 2018)
Calls of active or inactive are those of the source. How the calls were made is not given here.

Test system: CCRIS mutagenicity, Ames/micronucleus/aberration tests
Assay: CCRIS mutagenicity studies
[1] = Test System: AMES SALMONELLA TYPHIMURIUM, Strain/Indicator: TA98, Metabolic Activation: NONE, Method: STANDARD PLATE
[2] = Test System: AMES SALMONELLA TYPHIMURIUM, Strain/Indicator: TA98, Metabolic Activation: RAT, LIVER, S-9, Method: STANDARD PLATE
[3] = Test System: AMES SALMONELLA TYPHIMURIUM, Strain/Indicator: TA100, Metabolic Activation: NONE, Method: STANDARD PLATE
[4] = Test System: AMES SALMONELLA TYPHIMURIUM, Strain/Indicator: TA100, Metabolic Activation: RAT, LIVER, S-9, Method: STANDARD PLATE
[5] = Test System: AMES SALMONELLA TYPHIMURIUM, Strain/Indicator: TA98, Metabolic Activation: NONE, Method: PREINCUBATION
[6] = Test System: AMES SALMONELLA TYPHIMURIUM, Strain/Indicator: TA98, Metabolic Activation: RAT, LIVER, S-9, AROCLOR 1254, Method: PREINCUBATION
[7] = Test System: AMES SALMONELLA TYPHIMURIUM, Strain/Indicator: TA100, Metabolic Activation: NONE, Method: PREINCUBATION
[8] = Test System: AMES SALMONELLA TYPHIMURIUM, Strain/Indicator: TA100, Metabolic Activation: RAT, LIVER, S-9, AROCLOR 1254, Method: PREINCUBATION

O=[N+]([O-])c1c2c(cc3ccccc13)C=C[C@@H](O)[C@@H]2O
mutagenic call [1]: inactive; negative | mutagenic call [2]: inactive; negative | mutagenic call [3]: inactive; negative | mutagenic call [4]: inactive; negative

Oc1ccc2ncccc2c1
mutagenic call [3]: inactive; negative | mutagenic call (Test System: AMES SALMONELLA TYPHIMURIUM, Strain/Indicator: TA100, Metabolic Activation: RAT, LIVER, S-9, AROCLOR 1254 (10% OR 20%), Method: STANDARD PLATE): inactive; negative

Cc1cnc2ccccc2n1
mutagenic call [5]: inactive; negative | mutagenic call [6]: inactive; negative | mutagenic call [7]: inactive; negative | mutagenic call [8]: inactive; negative | mutagenic call (Test System: AMES SALMONELLA TYPHIMURIUM, Strain/Indicator: TA102, Metabolic Activation: NONE, Method: PREINCUBATION): inactive; negative | mutagenic call (Test System: AMES SALMONELLA TYPHIMURIUM, Strain/Indicator: TA102, Metabolic Activation: RAT, LIVER, S-9, AROCLOR 1254, Method: PREINCUBATION): inactive; negative

Cc1ccc2c(ccc3ccccc32)c1
mutagenic call (Test System: AMES SALMONELLA TYPHIMURIUM, Strain/Indicator: TA97, Metabolic Activation: NONE, Method: STANDARD PLATE): inactive; negative | mutagenic call (Test System: AMES SALMONELLA TYPHIMURIUM, Strain/Indicator: TA97, Metabolic Activation: RAT, LIVER, S-9, PCB, Method: STANDARD PLATE): active; positive | mutagenic call [1]: inactive; negative | mutagenic call (Test System: AMES SALMONELLA TYPHIMURIUM, Strain/Indicator: TA98, Metabolic Activation: RAT, LIVER, S-9, PCB, Method: STANDARD PLATE): active; positive | mutagenic call [3]: inactive; negative | mutagenic call (Test System: AMES SALMONELLA TYPHIMURIUM, Strain/Indicator: TA100, Metabolic Activation: RAT, LIVER, S-9, PCB, Method: STANDARD PLATE): active; positive

O[C@@H]1[C@H]2O[C@H]2c2c(ccc3ccc4ccccc4c23)[C@H]1O
mutagenic call (Test System: E. COLI, Strain/Indicator: CL101P, Metabolic Activation: NONE, Method: PREINCUBATION): active; positive | mutagenic call (Test System: E. COLI, Strain/Indicator: CL102P, Metabolic Activation: NONE, Method: PREINCUBATION): active; positive | mutagenic call (Test System: E. COLI, Strain/Indicator: CL103P, Metabolic Activation: NONE, Method: PREINCUBATION): active; positive | mutagenic call (Test System: E. COLI, Strain/Indicator: CL104P, Metabolic Activation: NONE, Method: PREINCUBATION): active; positive | mutagenic call (Test System: E. COLI, Strain/Indicator: CL105P, Metabolic Activation: NONE, Method: PREINCUBATION): active; positive | mutagenic call (Test System: E. COLI, Strain/Indicator: CL106P, Metabolic Activation: NONE, Method: PREINCUBATION): active; positive

c1ccc2c(c1)ccc1nc3ccc4ccccc4c3cc12
mutagenic call (Test System: AMES SALMONELLA TYPHIMURIUM, Strain/Indicator: TA98, Metabolic Activation: GUINEA PIG, LIVER, S-9, 3-METHYLCHOLANTHRENE, Method: STANDARD PLATE): inactive; negative | mutagenic call (Test System: AMES SALMONELLA TYPHIMURIUM, Strain/Indicator: TA100, Metabolic Activation: GUINEA PIG, LIVER, S-9, 3-METHYLCHOLANTHRENE, Method: STANDARD PLATE): active; positive | mutagenic call (Test System: AMES SALMONELLA TYPHIMURIUM, Strain/Indicator: TA100, Metabolic Activation: RAT, LIVER, S-9, AROCLOR 1254, Method: STANDARD PLATE): active; positive | mutagenic call (Test System: AMES SALMONELLA TYPHIMURIUM, Strain/Indicator: TA1537, Metabolic Activation: RAT, LIVER, S-9, AROCLOR 1254, Method: STANDARD PLATE): active; positive | mutagenic call (Test System: AMES SALMONELLA TYPHIMURIUM, Strain/Indicator: TA1537, Metabolic Activation: RAT, LIVER, S-9, PHENOBARBITAL, Method: STANDARD PLATE): active; positive | mutagenic call (Test System: AMES SALMONELLA TYPHIMURIUM, Strain/Indicator: TA1538, Metabolic Activation: RAT, LIVER, S-9, PHENOBARBITAL, Method: STANDARD PLATE): active; positive | mutagenic call (Test System: CHINESE HAMSTER V-79, Strain/Indicator: V-79/6-THIOGUANINE, Metabolic Activation: GUINEA PIG, LIVER, S-9, 3-METHYLCHOLANTHRENE): active; positive

CC(C)(C)c1cc(/C=C/c2cc(C(C)(C)C)c(O)c(C(C)(C)C)c2)cc(C(C)(C)C)c1O
mutagenic call [5]: inactive; negative | mutagenic call (Test System: AMES SALMONELLA TYPHIMURIUM, Strain/Indicator: TA98, Metabolic Activation: RAT, LIVER, S-9, Method: PREINCUBATION): inactive; negative | mutagenic call [7]: inactive; negative | mutagenic call (Test System: AMES SALMONELLA TYPHIMURIUM, Strain/Indicator: TA100, Metabolic Activation: RAT, LIVER, S-9, Method: PREINCUBATION): inactive; negative

CC(C)(O)[C@H]1CC[C@@](C)([C@H]2[C@@H](O)C[C@@]3(C)[C@@H]4CC[C@H]5C(C)(C)C(=O)CC[C@@]56C[C@@]46CC[C@]23C)O1
mutagenic call (End Point: IN VITRO MICRONUCLEUS, Test System: HUMAN PERIPHERAL LYMPHOCYTES, Metabolic Activation: NONE): inactive; negative

c1ccc2c(c1)-c1cc3ccc4ccccc4c3cc1C1OC21 (stereo unspecified)
mutagenic call [1]: inactive; negative | mutagenic call [3]: inactive; negative | mutagenic call (Test System: AMES SALMONELLA TYPHIMURIUM, Strain/Indicator: TA1537, Metabolic Activation: NONE, Method: STANDARD PLATE): active; positive | mutagenic call (Test System: CHINESE HAMSTER V-79, Strain/Indicator: V-79/8-AZAGUANINE, Metabolic Activation: NONE, Method: STANDARD PLATE): active; positive

OC1C=Cc2c(cc3ccc4cccc5ccc2c3c45)C1O (stereo unspecified)
mutagenic call (Test System: CHINESE HAMSTER V-79, Strain/Indicator: V-79/OUABAIN, Metabolic Activation: HAMSTER, EMBRYO, CELL-MEDIATED, Method: STANDARD PLATE): active; positive

O=[N+]([O-])N(c1ccccn1)S(=O)(=O)c1ccccc1
mutagenic call [5]: inactive; negative | mutagenic call [6]: inactive; negative | mutagenic call [7]: inactive; negative | mutagenic call [8]: inactive; negative

CCC(C)OS(C)(=O)=O (stereo unspecified)
mutagenic call (End Point: IN VITRO MICRONUCLEUS, Test System: MOUSE LYMPHOMA L5178Y CELLS, Metabolic Activation: NONE): active; positive | mutagenic call (End Point: IN VITRO MICRONUCLEUS, Test System: MOUSE LYMPHOMA L5178Y CELLS, Metabolic Activation: RAT, LIVER, S-9): active; positive | mutagenic call [1]: active; positive | mutagenic call [2]: active; positive | mutagenic call [3]: active; positive | mutagenic call [4]: active; positive | mutagenic call (Test System: AMES SALMONELLA TYPHIMURIUM, Strain/Indicator: TA1535, Metabolic Activation: NONE, Method: STANDARD PLATE): active; positive | mutagenic call (Test System: CHINESE HAMSTER V-79, Strain/Indicator: V-79/6-THIOGUANINE, Metabolic Activation: NONE): active; positive

CC1CC(=O)O1 (stereo unspecified)
mutagenic call (Test System: AMES SALMONELLA TYPHIMURIUM, Strain/Indicator: G46, Metabolic Activation: NONE, Method: STANDARD PLATE): active; positive | mutagenic call (Test System: AMES SALMONELLA TYPHIMURIUM, Strain/Indicator: TA98, Metabolic Activation: HAMSTER, LIVER, S-9, AROCLOR 1254 (30%), Method: PREINCUBATION): active; positive | mutagenic call [5]: active; positive | mutagenic call (Test System: AMES SALMONELLA TYPHIMURIUM, Strain/Indicator: TA98, Metabolic Activation: RAT, LIVER, S-9, AROCLOR 1254 (30%), Method: PREINCUBATION): active; positive | mutagenic call (Test System: AMES SALMONELLA TYPHIMURIUM, Strain/Indicator: TA100, Metabolic Activation: HAMSTER, LIVER, S-9, AROCLOR 1254 (30%), Method: PREINCUBATION): active; positive | mutagenic call [7]: active; positive | mutagenic call (Test System: AMES SALMONELLA TYPHIMURIUM, Strain/Indicator: TA100, Metabolic Activation: RAT, LIVER, S-9, AROCLOR 1254 (30%), Method: PREINCUBATION): active; positive

Nc1nc2c(ncn2COC(CO)CO)c(=O)[nH]1
mutagenic call (End Point: IN VITRO CHROMOSOMAL ABERRATIONS, Test System: CHO CELLS (CHO-HSVTK), Metabolic Activation: NONE): active; positive (structural changes); concentration chosen also induced apoptosis
